These results are taken from patent publication US5900434A, “Method for inhibiting the production of interleukin-1 or tumor necrosis factor-α by administering acanthoic acid” (Korea Institute of Science and Technology, priority 1994, dated 1999).

This test deals with H2O2 production in human neutrophils. The test is described as follows: Production of H2O2 in human neutrophils (PMA-stimulated). It is filed as cell-based. How it is done: Normal human peripheral blood was heparin-treated and diluted with equal amount of Hank's balanced salt solution (HBSS: Ca^2+ and Mg^2+ free). The diluted blood was put into a centrifuge tube containing therein Ficoll-Hypaque(Sigma, St. Louis, Mo., U.S.A.) layer having a density of 1.077 piled up on Ficoll-Hypaque layer having a density of 1.119, and then centrifuged at 700×g for 30 minutes to obtain monocytes from the layer between Ficoll-Hypaque layer having a density of 1.077 and serum layer, and neutrophils from the layer between Ficoll-Hypaque layer having a density of 1.077 and that having a density of 1.119. The separated cells were washed twice with 4° C. HBSS(Ca^2+ and Mg^2+ free) and suspended in RPMI 1640 medium(Gibco, Grand Island, N.Y., U.S.A.) containing 10% fetal bovine serum(FBS, Hyclone, Logan, Utah, U.S.A.). The suspensions were added to the wells of 24-well incubation plate(Costar, Cambridge, Mass., U.S.A.) and incubated at 37° C. for 2 hours to obtain monocytes, macrophages and neutrophils. Inflammatory responses are known as a cascade reaction comprising the secretion of various cytokines, e.g., IL-1, from immune cells stimulated by various stimulants; production of phospholipase A2, lysosomal enzyme, reactive oxygen species, etc. by other immune cells stimulated by said cytokines; and damage of tissues induced by the above products(Pruzanski, W. and […]., Immunol. Today, 12, 143(1991)). The ability of acanthoic acid to block the inflammatory reactions was tested by measuring their inhibitory activity to the production of reactive oxygen species, i.e., H2 O2 and O2^-. The amount of H2 O2 was determined by a microassay employing 96-well microplate as follows. 5×10^5 cells of neutrophils were added to each of the wells containing RPMI 1640 medium, and then 25 μl of horseradish peroxidase (500 μg/ml; type II, Sigma) and 75 μl of phenol red(1 mg/ml) were added to each of the wells. Thereafter, the cells were treated with 10, 20 and 50 μg/ml of acanthoic acid for an hour, stimulated with 10^-7 M phorbol myristate acetate(PMA) and then incubated at 37° C. for 60 minutes. When the incubation was completed, 3M NaOH was added to the wells in an amount of 25 μl/well to stop the reaction and O.D. was measured at 620 nm by using ELISA reader(Dynatech Lab. Inc.) to determine the change of colors with respect to the oxidation of phenol. The amount of H2 O2 was determined by employing a standard curve prepared by diluted H2 O2 (Sigma).

Regarding `C=C[C@@]1(C)CC=C2C(CCC3[C@](C)(C(=O)O)CCC[C@@]23C)C1` (single isomer, unassigned; (-)) [acanthoic acid, (-)-pimara-9(11),15-diene-19-oic acid], the activity at 10 µg/mL (Neutrophil, 1 h, PMA + acanthoic acid 10 μg/ml, PMA = 100, read-out: Amount of produced reactive oxygen species, H2O2 (% to the control group)) came out at 70%. For the same compound, the activity at 20 µg/mL (Neutrophil, 1 h, PMA + acanthoic acid 20 μg/ml, PMA = 100, read-out: Amount of produced reactive oxygen species, H2O2 (% to the control group)) worked out at 37.4%. Moreover, where the note is “Neutrophil, 1 h, PMA + acanthoic acid 50 μg/ml, PMA = 100, read-out: Amount of produced reactive oxygen species, H2O2 (% to the control group)”, the activity at 50 µg/mL was determined as 15.8%. Moreover, the “Amount of produced reactive oxygen species, H2O2” value runs as follows: (PMA + acanthoic acid 10 μg/ml) 72.6 nM/60 min; (PMA + acanthoic acid 20 μg/ml) 38.7 nM/60 min; (PMA + acanthoic acid 50 μg/ml) 16.4 nM/60 min.
